Source: patent publication US20160256460A1, “ACTIVATORS OR STIMULATORS OF SOLUBLE GUANYLATE CYCLASE FOR USE IN TREATING CHRONIC FATIGUE SYNDROME” (BERGEN TEKNOLOGIOVERFØRING AS, priority 2013, published 2016)

Test system: ME/CFS patient
Experiment: Case report: oral riociguate (Adempas) in one ME/CFS patient
Assay type: in vivo, human
Method: It is understood that the examples illustrate the invention further without limiting the same. The patient is a person. They have had ME/CFS for 10 years, starting after a Giardia Lamblia infection. They have a disease severity varying between moderate and mild, but with moderate severity the last month prior to start of Riociguat. They have a typical ME/CFS and fulfils Canadian criteria. […] They started with only 0.5 mg once daily, gradually increasing to 0.5 two times daily after a few days and again to 0.5 mg three times daily on day six. […] The dose was increased to 1 mg+0.5 mg+1 mg starting from day seven and, in addition, starting from day nine increased to 1 mg three times daily. […] They told the clinicians of the improvement of their ME/CFS symptoms. They experienced this improvement to be significant and not within the usual range of symptom variation of their ME/CFS disease the last months.

## COC(=O)N(C)c1c(N)nc(-c2nn(Cc3ccccc3F)c3ncccc23)nc1N [Riociguat, Methyl 4,6-diamino-2-[1-(2-fluorobenzyl)-1H-pyrazolo[3,4-b]pyridine-3-yl]-5-pyrimidinyl(methyl)carbamate]
After the first six days, at a dose of 2.5 mg per day
  ME/CFS symptom change reported by the patient: more energy and less fatigue, less brain fog with an improved concentration ability, less hypersensitivity to sound and light, and less feeling of sore throat
person, moderate ME/CFS, oral 0.5 mg once daily increased to 0.5 mg three times daily on day six, noticed from day six, the next three days
  benefit on the ME/CFS symptoms: benefit on the ME/CFS symptoms
Same patient, dose increased up to 1 mg three times daily from day nine
  side effects: no clear side effects
